Laboratory results taken from patent US11426371B2, “Compositions and methods for treating cancer” (University of Virginia Patent Foundation, priority 2017, dated 2022).
pEC50: −log10 of the molar value. Like-named read-outs stand apart in the source and are kept apart here.

Key:
acid ceramidase (AC) = biological target: T1, acid ceramidase (AC) (Homo sapiens, UniProt Q13510); assay: LC/MS analysis of tryptic digests of AC incubated with SACLAC; type: binding; set-up: expressed in transfected cells; conditions: peptide C,T,S,I,V,A,E,D,K
T1 sequence (Q13510 143-395 limits assumed): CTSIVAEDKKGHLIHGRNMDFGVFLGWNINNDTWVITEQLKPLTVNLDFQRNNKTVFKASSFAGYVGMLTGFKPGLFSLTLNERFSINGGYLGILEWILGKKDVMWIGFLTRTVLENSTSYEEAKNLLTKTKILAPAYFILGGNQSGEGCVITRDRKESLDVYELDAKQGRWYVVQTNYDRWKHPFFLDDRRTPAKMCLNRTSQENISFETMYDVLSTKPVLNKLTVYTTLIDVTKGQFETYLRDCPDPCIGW
T1 sequence (Q13510 22-142 limits assumed): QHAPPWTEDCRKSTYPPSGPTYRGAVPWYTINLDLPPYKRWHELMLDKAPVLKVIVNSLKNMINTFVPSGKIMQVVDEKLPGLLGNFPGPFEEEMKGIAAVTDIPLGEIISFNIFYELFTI

KG1a = assay: Cell viability, panel of AML cell lines; type: cell-based; conditions: Homo sapiens, KG-1a, KG1a cells
Protocol: (§1) Representative human AML cell lines (FIG. 2A; upper and lower panels) HL60/VCR and (FIG. 2B; upper and lower panels) OCI-AML2 were treated with SACLAC for 24 and 48 hours. Viability was assessed by MTS assay at 24 and 48 hours and apoptosis was assessed by flow cytometry at 48 hours. Upper panels represent % viability and lower panels indicate % apoptosis.
(§2) Two representative human-derived AML cell lines, HL60/VCR and OCI-AML2, are shown. These studies have been expanded to a large panel of additional human AML cell lines (n=30, Table 1).

KGI/ABTR = assay: Cell viability, panel of AML cell lines; type: cell-based; conditions: Homo sapiens, KGI/ABTR cells
Protocol: as §1, §2

Kasumi-1 = assay: Cell viability, panel of AML cell lines; type: cell-based; conditions: Homo sapiens, Kasumi-1 cells
Protocol: as §1, §2

MOLM-13 = assay: Cell viability, panel of AML cell lines; type: cell-based; conditions: Homo sapiens, MOLM-13 cells
Protocol: as §1, §2

HEL = assay: Cell viability, panel of AML cell lines; type: cell-based; conditions: Homo sapiens, HEL cells
Protocol: as §1, §2

ML2 = assay: Cell viability, panel of AML cell lines; type: cell-based; conditions: Homo sapiens, ML-2, ML2 cells
Protocol: as §1, §2

HL60 = assay: Cell viability, panel of AML cell lines; type: cell-based; conditions: Homo sapiens, HL-60, HL60 cells
Protocol: as §1, §2

NB4 = assay: Cell viability, panel of AML cell lines; type: cell-based; conditions: Homo sapiens, NB-4, NB4 cells
Protocol: as §1, §2

Kasumi-6 = assay: Cell viability, panel of AML cell lines; type: cell-based; conditions: Homo sapiens, Kasumi-6 cells
Protocol: as §1, §2

OCI-M2 = assay: Cell viability, panel of AML cell lines; type: cell-based; conditions: Homo sapiens
Protocol: as §1, §2

EOL-1 = assay: Cell viability, panel of AML cell lines; type: cell-based; conditions: Homo sapiens, EOL1, EOL-1 cells
Protocol: as §1, §2

U937 = assay: Cell viability, panel of AML cell lines; type: cell-based; conditions: Homo sapiens, U-937, U937 cells
Protocol: as §1, §2

KGIa/ABTR = assay: Cell viability, panel of AML cell lines; type: cell-based; conditions: Homo sapiens, KGIa/ABTR cells
Protocol: as §1, §2

MOLM-14 = assay: Cell viability, panel of AML cell lines; type: cell-based; conditions: Homo sapiens, MOLM-14 cells
Protocol: as §1, §2

[1] = tested on: primary AML patient samples; assay: Apoptosis in primary AML patient cells; type: cell-based, human; conditions: 48 hours, nutrient- and growth factor-rich culture
Protocol: Multiple primary patient (Pt) AML cells were treated with various doses of SACLAC and assayed for apoptosis at 48 hours and colony formation over several days. […] The ordinate represents Colonies (as % of control) and the abscissa represents the concentration of SACLAC (μM). Unt=untreated; DMSO=dimethyl sulfoxide vehicle control.
Further, effects on patient samples strongly support the potential for clinical relevance of SACLAC. […] Based on the data presented here, we propose that use of SACLAC for treatment of AML is novel and clinically promising.

With `CCCCCCCCCCCCCCC[C@@H](O)[C@H](CO)NC(=O)CCl` [SACLAC, 2-chloro-N-((2S,3R)-1,3-dihydroxyoctadecan-2-yl)acetamide] the “covalent modification of AC peptide” value (acid ceramidase (AC)) was “formation of the expected lipid modified peptide”, the pEC50 (KG1a; 24 h, read-out: EC50 24 h) was 5.25 and the pEC50 (KG1a; 48 h, read-out: EC50 48 h) was 5.46. The pEC50 (KGI/ABTR; 24 h, read-out: EC50 24 h) was 5.27, the pEC50 (KGI/ABTR; 48 h, read-out: EC50 48 h) was 5.39 and the pEC50 (Kasumi-1; 24 h, read-out: EC50 24 h) was 6.10. It also gave a pEC50 (Kasumi-1; 48 h, read-out: EC50 48 h) of 6.10, a pEC50 (MOLM-13; 24 h, read-out: EC50 24 h) of 5.96 and a pEC50 (MOLM-13; 48 h, read-out: EC50 48 h) of 5.85. For the same molecule, the pEC50 (HEL; 24 h, read-out: EC50 24 h) was 5.92, the pEC50 (HEL; 48 h, read-out: EC50 48 h) was 5.80 and the pEC50 (ML2; 24 h, read-out: EC50 24 h) was 5.77. For the same molecule, the pEC50 (ML2; 48 h, read-out: EC50 48 h) was 5.74, the pEC50 (HL60; 24 h, read-out: EC50 24 h) was 5.74 and the pEC50 (HL60; 48 h, read-out: EC50 48 h) was 5.92. The pEC50 (NB4; 24 h, read-out: EC50 24 h) was 6.70, the pEC50 (NB4; 48 h, read-out: EC50 48 h) was 6.22 and the pEC50 (Kasumi-6; 24 h, read-out: EC50 24 h) was 5.68. The pEC50 (Kasumi-6; 48 h, read-out: EC50 48 h) was 5.57, the pEC50 (OCI-M2; OCI-M2, 24 h, read-out: EC50 24 h) was < 5.00 and the pEC50 (OCI-M2; OCI-M2, 48 h, read-out: EC50 48 h) was < 5.00. The viability at 10 µM (OCI-M2; OCI-M2 cells, 10 μM, read-out: viable cells at the highest tested dose) was 60%, the pEC50 (EOL-1; 24 h, read-out: EC50 24 h) was 6.00 and the pEC50 (EOL-1; 48 h, read-out: EC50 48 h) was 5.96. The pEC50 (U937; 24 h, read-out: EC50 24 h) was 6.00, the pEC50 (U937; 48 h, read-out: EC50 48 h) was 5.77 and the pEC50 (KGIa/ABTR; 24 h, read-out: EC50 24 h) was 5.54. For the same molecule, the pEC50 (KGIa/ABTR; 48 h, read-out: EC50 48 h) was 5.57, the pEC50 (MOLM-14; 24 h, read-out: EC50 24 h) was 6.30 and the pEC50 (MOLM-14; 48 h, read-out: EC50 48 h) was 6.30. The apoptosis [1] was “effectively induced apoptosis”.
